Assay results published in the NIST ThermoML archive (doi:10.1021/je700754k).
Numbers after ± are expanded uncertainties.

Tests used:
[1] = xn = mol fraction of the nth substance listed; conditions: 101 kPa, Liquid
[2] = excess molar enthalpy (molar enthalpy of mixing); xn = mol fraction of the nth substance listed; conditions: 303.15 K, 101 kPa, Liquid, Calvet calorimetry

C[N+](=O)[O-] [nitromethane] + CCCCn1cc[n+](C)c1.COS(=O)(=O)[O-]
[1], x2 = 0
Conditions | mass density [kg/m3]
293.15 K | 1137.92 ± 1.9
303.15 K | 1124.32 ± 1.8
313.15 K | 1110.62 ± 1.7
323.15 K | 1096.82 ± 1.6

C[N+](=O)[O-] [nitromethane] + CCCCn1cc[n+](C)c1.F[B-](F)(F)F
[2]
Conditions | excess molar enthalpy [kcal/mol]
x2 = 0.0016 | -0.00167 ± 0.000239
x2 = 0.0273 | -0.022 ± 0.00191
x2 = 0.0558 | -0.0435 ± 0.00359
x2 = 0.1131 | -0.0686 ± 0.0055
x2 = 0.202 | -0.097 ± 0.00789
x2 = 0.3621 | -0.116 ± 0.00932
x2 = 0.5067 | -0.108 ± 0.0086
x2 = 0.6037 | -0.0978 ± 0.00789
x2 = 0.7226 | -0.0755 ± 0.00598
x2 = 0.8827 | -0.038 ± 0.00311

mass density [kg/m3], [1]
Conditions | 293.15 K | 303.15 K | 313.15 K | 323.15 K
x2 = 0 | 1137.98 ± 1.9 | 1124.39 ± 1.8 | 1110.68 ± 1.7 | 1096.88 ± 1.6
x2 = 0.0512 | 1154.27 ± 2 | 1142.08 ± 1.9 | 1129.84 ± 1.8 | 1117.57 ± 1.7
x2 = 0.0991 | 1164.29 ± 2 | 1152.98 ± 1.9 | 1141.66 ± 1.9 | 1130.32 ± 1.8
x2 = 0.1392 | 1170.56 ± 2 | 1159.82 ± 2 | 1149.08 ± 1.9 | 1138.35 ± 1.8
x2 = 0.2026 | 1178.15 ± 2 | 1168.09 ± 2 | 1158.06 ± 1.9 | 1148.05 ± 1.8
x2 = 0.2986 | 1186.08 ± 2 | 1176.78 ± 1.9 | 1167.52 ± 1.9 | 1158.31 ± 1.8
x2 = 0.3565 | 1189.62 ± 2 | 1180.67 ± 1.9 | 1171.76 ± 1.9 | 1162.9 ± 1.8
x2 = 0.3972 | 1191.64 ± 2 | 1182.9 ± 1.9 | 1174.2 ± 1.9 | 1165.55 ± 1.8
x2 = 0.4553 | 1194.13 ± 1.9 | 1185.65 ± 1.9 | 1177.21 ± 1.8 | 1168.83 ± 1.8
x2 = 0.5231 | 1196.42 ± 1.9 | 1188.18 ± 1.9 | 1179.99 ± 1.8 | 1171.87 ± 1.8
x2 = 0.5949 | 1198.48 ± 1.9 | 1190.48 ± 1.8 | 1182.53 ± 1.8 | 1174.65 ± 1.7
x2 = 0.6863 | 1200.57 ± 1.9 | 1192.82 ± 1.8 | 1185.11 ± 1.8 | 1177.48 ± 1.7
x2 = 0.8073 | 1202.6 ± 1.8 | 1195.13 ± 1.8 | 1187.69 ± 1.7 | 1180.33 ± 1.7
x2 = 0.8634 | 1203.37 ± 1.8 | 1196.01 ± 1.8 | 1188.69 ± 1.7 | 1181.43 ± 1.7

CCCCn1cc[n+](C)c1.F[B-](F)(F)F [1-butyl-3-methylimidazolium tetrafluoroborate] + C[N+](=O)[O-]
[1], x1 = 1
Conditions | mass density [kg/m3]
293.15 K | 1204.99 ± 1.8
303.15 K | 1197.89 ± 1.8
313.15 K | 1190.81 ± 1.7
323.15 K | 1183.78 ± 1.7

CCO [ethanol] + CCCCn1cc[n+](C)c1.F[B-](F)(F)F
[1], x2 = 0
Conditions | mass density [kg/m3]
293.15 K | 789.38 ± 0.94
303.15 K | 780.78 ± 0.96
313.15 K | 772.04 ± 0.99
323.15 K | 763.14 ± 1

CCCCn1cc[n+](C)c1.COS(=O)(=O)[O-] [1-butyl-3-methylimidazolium methyl sulfate] + C[N+](=O)[O-]
[2]
Conditions | excess molar enthalpy [kcal/mol]
x1 = 0.0804 | -0.038 ± 0.00311
x1 = 0.1617 | -0.0681 ± 0.0055
x1 = 0.2832 | -0.0946 ± 0.00765
x1 = 0.394 | -0.111 ± 0.00884
x1 = 0.4351 | -0.108 ± 0.0086
x1 = 0.5566 | -0.0999 ± 0.00813
x1 = 0.6675 | -0.0884 ± 0.00717
x1 = 0.7671 | -0.0652 ± 0.00526
x1 = 0.8761 | -0.0311 ± 0.00263

mass density [kg/m3], [1]
Conditions | 293.15 K | 303.15 K | 313.15 K | 323.15 K
x1 = 0.0398 | 1152.79 ± 2 | 1140.52 ± 1.9 | 1128.19 ± 1.8 | 1115.81 ± 1.7
x1 = 0.1021 | 1167.13 ± 2 | 1156.18 ± 2 | 1145.2 ± 1.9 | 1134.22 ± 1.8
x1 = 0.1433 | 1174.03 ± 2.1 | 1163.71 ± 2 | 1153.39 ± 1.9 | 1143.09 ± 1.8
x1 = 0.1988 | 1181.04 ± 2.1 | 1171.38 ± 2 | 1161.73 ± 1.9 | 1152.11 ± 1.9
x1 = 0.2444 | 1185.56 ± 2 | 1176.34 ± 2 | 1167.13 ± 1.9 | 1157.97 ± 1.9
x1 = 0.2998 | 1189.98 ± 2 | 1181.18 ± 2 | 1172.41 ± 1.9 | 1163.68 ± 1.9
x1 = 0.3979 | 1195.81 ± 2 | 1187.57 ± 1.9 | 1179.37 ± 1.9 | 1171.23 ± 1.8
x1 = 0.4786 | 1199.41 ± 2 | 1191.53 ± 1.9 | 1183.69 ± 1.9 | 1175.91 ± 1.8
x1 = 0.5652 | 1202.31 ± 1.9 | 1194.73 ± 1.9 | 1187.19 ± 1.8 | 1179.71 ± 1.8
x1 = 0.7127 | 1206.24 ± 1.9 | 1199.08 ± 1.8 | 1191.95 ± 1.8 | 1184.88 ± 1.7
x1 = 0.8212 | 1208.19 ± 1.9 | 1201.28 ± 1.8 | 1194.38 ± 1.8 | 1187.53 ± 1.7
x1 = 0.8546 | 1208.81 ± 1.9 | 1201.97 ± 1.8 | 1195.14 ± 1.8 | 1188.36 ± 1.7
x1 = 1 | 1211.16 ± 1.8 | 1204.45 ± 1.8 | 1197.88 ± 1.8 | 1191.35 ± 1.7

CCCCn1cc[n+](C)c1.F[B-](F)(F)F [1-butyl-3-methylimidazolium tetrafluoroborate] + CCO
[2]
Conditions | excess molar enthalpy [kcal/mol]
x1 = 0.0201 | 0.086 ± 0.00693
x1 = 0.0573 | 0.204 ± 0.0163
x1 = 0.1005 | 0.307 ± 0.0239
x1 = 0.1962 | 0.467 ± 0.0382
x1 = 0.3371 | 0.591 ± 0.0478
x1 = 0.4225 | 0.624 ± 0.0502
x1 = 0.5001 | 0.6 ± 0.0478
x1 = 0.5874 | 0.545 ± 0.043
x1 = 0.6333 | 0.49 ± 0.0406
x1 = 0.7422 | 0.399 ± 0.0311
x1 = 0.8291 | 0.277 ± 0.0222
x1 = 0.9257 | 0.149 ± 0.012

mass density [kg/m3], [1]
Conditions | 293.15 K | 303.15 K | 313.15 K | 323.15 K
x1 = 0.0517 | 854.59 ± 0.74 | 846.27 ± 0.76 | 837.83 ± 0.79 | 829.27 ± 0.82
x1 = 0.0918 | 895.67 ± 0.62 | 887.54 ± 0.64 | 879.27 ± 0.67 | 870.9 ± 0.69
x1 = 0.1479 | 943.11 ± 0.48 | 935.12 ± 0.5 | 927.02 ± 0.52 | 918.84 ± 0.55
x1 = 0.1995 | 980.07 ± 0.4 | 972.15 ± 0.41 | 964.15 ± 0.43 | 956.11 ± 0.45
x1 = 0.2518 | 1011.33 ± 0.38 | 1003.46 ± 0.36 | 995.56 ± 0.36 | 987.64 ± 0.38
x1 = 0.3228 | 1046.79 ± 0.46 | 1039.01 ± 0.44 | 1031.22 ± 0.42 | 1023.46 ± 0.41
x1 = 0.4219 | 1085.81 ± 0.57 | 1078.14 ± 0.54 | 1070.51 ± 0.52 | 1062.91 ± 0.5
x1 = 0.5356 | 1120.88 ± 0.67 | 1113.35 ± 0.64 | 1105.88 ± 0.62 | 1098.46 ± 0.6
x1 = 0.6244 | 1142.66 ± 0.72 | 1135.23 ± 0.7 | 1127.86 ± 0.68 | 1120.54 ± 0.66
x1 = 0.709 | 1160.24 ± 0.77 | 1152.89 ± 0.75 | 1145.59 ± 0.73 | 1138.37 ± 0.7
x1 = 0.8295 | 1181.36 ± 0.83 | 1174.12 ± 0.81 | 1166.93 ± 0.79 | 1159.8 ± 0.77
x1 = 0.9327 | 1196.33 ± 0.88 | 1189.16 ± 0.85 | 1182.04 ± 0.83 | 1174.97 ± 0.81
x1 = 1 | 1204.93 ± 0.9 | 1197.83 ± 0.88 | 1190.74 ± 0.86 | 1183.72 ± 0.83

CCCCn1cc[n+](C)c1.COS(=O)(=O)[O-] [1-butyl-3-methylimidazolium methyl sulfate] + CCO
[2]
Conditions | excess molar enthalpy [kcal/mol]
x1 = 0.016 | 0.0504 ± 0.00406
x1 = 0.0338 | 0.088 ± 0.00717
x1 = 0.1032 | 0.206 ± 0.0165
x1 = 0.1897 | 0.277 ± 0.0222
x1 = 0.2821 | 0.316 ± 0.0263
x1 = 0.3379 | 0.305 ± 0.0239
x1 = 0.5068 | 0.256 ± 0.0206
x1 = 0.5946 | 0.229 ± 0.0184
x1 = 0.7119 | 0.166 ± 0.0134
x1 = 0.7889 | 0.122 ± 0.0098
x1 = 0.9083 | 0.0526 ± 0.0043

mass density [kg/m3], [1]
Conditions | 293.15 K | 303.15 K | 313.15 K | 323.15 K
x1 = 0.0459 | 854.75 ± 0.74 | 846.48 ± 0.76 | 838.14 ± 0.79 | 829.69 ± 0.82
x1 = 0.0987 | 913.25 ± 0.56 | 905.23 ± 0.59 | 897.17 ± 0.61 | 889.06 ± 0.64
x1 = 0.142 | 952 ± 0.46 | 944.14 ± 0.48 | 936.26 ± 0.5 | 928.36 ± 0.52
x1 = 0.1905 | 988.2 ± 0.38 | 980.49 ± 0.4 | 972.79 ± 0.41 | 965.08 ± 0.43
x1 = 0.2357 | 1016.76 ± 0.39 | 1009.19 ± 0.38 | 1001.63 ± 0.36 | 994.07 ± 0.37
x1 = 0.2733 | 1037.27 ± 0.44 | 1029.8 ± 0.42 | 1022.32 ± 0.4 | 1014.88 ± 0.39
x1 = 0.3516 | 1073.29 ± 0.53 | 1065.97 ± 0.51 | 1058.67 ± 0.49 | 1051.41 ± 0.47
x1 = 0.4381 | 1104.9 ± 0.63 | 1097.71 ± 0.6 | 1090.57 ± 0.58 | 1083.48 ± 0.56
x1 = 0.5335 | 1132.61 ± 0.7 | 1125.56 ± 0.68 | 1118.55 ± 0.66 | 1111.6 ± 0.64
x1 = 0.5712 | 1141.96 ± 0.73 | 1134.95 ± 0.7 | 1127.99 ± 0.68 | 1121.09 ± 0.66
x1 = 0.6742 | 1163.83 ± 0.79 | 1156.95 ± 0.77 | 1150.1 ± 0.74 | 1143.31 ± 0.72
x1 = 0.7665 | 1180.16 ± 0.83 | 1173.37 ± 0.81 | 1166.61 ± 0.79 | 1159.9 ± 0.77
x1 = 0.8482 | 1192.27 ± 0.87 | 1185.55 ± 0.85 | 1178.85 ± 0.82 | 1172.21 ± 0.8
x1 = 0.9248 | 1202.35 ± 0.9 | 1195.72 ± 0.87 | 1189.08 ± 0.85 | 1182.49 ± 0.83
x1 = 1 | 1211.17 ± 0.92 | 1204.48 ± 0.9 | 1197.92 ± 0.88 | 1191.39 ± 0.86

CCO [ethanol] + CCCCn1cc[n+](C)c1.COS(=O)(=O)[O-]
[1], x2 = 0
Conditions | mass density [kg/m3]
293.15 K | 789.53 ± 0.94
303.15 K | 780.94 ± 0.96
313.15 K | 772.2 ± 0.99
323.15 K | 763.28 ± 1
